Data set [1] deals with Male Baboons. The note with it: in vivo, 1.5 mg/kg.
Description: (§1) The samples analyzed were sera taken on the day of first treatment before being given test article (day 0), after 12 days of treatment (day 12) and 7 days after the last treatment (end or washout).
The test system of data set [2] is hypogonadal men.
Protocol: (§2) Half of the men in each of the Androxal™ and placebo arms were randomized into cohorts that underwent in-clinic sessions on days 1 and 14 to determine pharmacokinetic parameters for Androxal™ as well as cyclical changes in testosterone. The placebo and Androxal™ doses were administered in a double blind fashion. The Androgel® cream was administered in an open label fashion. Half of the Androgel® patients underwent in-clinic sessions similar to the other patients in the study. Following the two week drug exposure patients were followed for an additional seven to ten days to determine the status of their testosterone levels.
Data set [3] relates to Male Baboons. Briefly: Effects of Clomids on serum testosterone and prolactin in male baboons. The format is in vivo, Baboon. The note with it: 1.5 mg/kg for 12 days, in words. The text has this:
There were no changes in serum LH or FSH. […] There was also no change in body weight during the 12 day study.

Data set [4] has as its system Male Baboons. The data set is described as follows: Effects of Clomids on clinical chemistry and hematology parameters in male baboons.
Description: as §1
The subject of data set [5] is hypogonadal men. This is another data set of the same source.
Protocol: as §2
The test system of data set [6] is Male Baboons. Briefly: Effects of Clomids on serum cholesterol in male baboons. The format is in vivo, Baboon. The settings on record: 1.5 mg/kg for 12 days.
Description: as §1
Data set [7] deals with men. The settings on record: cited from earlier work.
Setting [8] is: men, after 2 months, Guay et al. 1995.

Read-outs that look alike come from different tables or passages of the source.

Regarding `CCN(CC)CCOc1ccc(/C(=C(/Cl)c2ccccc2)c2ccccc2)cc1` [Zuclomid, cis-clomiphene], in data set [1], the effects on hematocrit entry was “substantive effects” and the “effects on the red blood cell population” value is “substantive effects”.

Regarding `CCN(CC)CCOc1ccc(/C(=C(\Cl)c2ccccc2)c2ccccc2)cc1` [Enclomid, trans-clomiphene], the reduction in triglycerides in data set [2] (average, non-dose dependent, after two weeks of therapy) is given as 19.1%. Besides, the “side effects different than placebo” value in data set [2] (two week exposure) was “no side effects”. Moreover, in data set [3], the “effect on total serum testosterone” value is listed as “significant increases”. Besides, in data set [4] (1.5 mg/kg for 12 days), the counts of eosinophiles entry is given as “raising”, the “effects on the red blood cell population” value is listed as “substantive effects” and the lymphocyte count result is “increase”. Further, in data set [4] (between day 0 and Day 12), the serum creatinine values entry is listed as “no differences”. Also, in data set [4] (very strong after the 7-day washout), the “per cent of granulocytes in the blood” value is “lowering”. For the same compound, the “changes in testosterone from baseline testosterone levels (in words)” value in data set [5] (all doses) is “statistically significant changes”. Also, in data set [5] (during treatment), the “serum levels of LH” value is listed as “statistically increase”.

Turning to `CCN(CC)CCOc1ccc(C(=C(Cl)c2ccccc2)c2ccccc2)cc1` [Clomid, clomiphene], the “serum cholesterol levels (in words)” value in data set [6] was “slight increase”. Also, the “effect on total serum testosterone” value in data set [3] was “more variable total testosterone levels”. For the same compound, in data set [7] (setting [8]), the “LH, FSH, and testosterone” value is listed as “increase”; the erectile dysfunction result is given as “no effects”. In addition, in data set [7] (men, after 6 months of treatment, WHO study), the “semen quality or fertility” value is recorded as “no changes”. The “free and total testosterone” value in data set [7] (men, Tenover et al. 1987) is reported as “increases”. Besides, the “FSH, LH” value in data set [7] (young and old men after treatment, Tenover et al. 1987) was “increased”.

(Values after US20090215906A1 (priority 2005, published 2009).)
